For one compound, EC50 results are on record in BindingDB's records for doi:10.1021/acs.jmedchem.0c01312 (Jinan University, 2020).

This assay in a line: Inhibition of KRas G12C mutant in human NCI-H1792 cells assessed as antiproliferative activity incubated for 3 days by CellTiter-Glo assay. (In general: Cellular ATP, detected with luciferase, serves as a proxy for viable cell number.)

Structures are written as SMILES.

On to `C=CC(=O)N1CCN(C(=O)CNc2cc(I)c(Cl)cc2O)CC1`, for which the EC50 (as a rule, the concentration that produces a half-maximal response) amounted to 0.32 µM.
